Data: patent US12227501B2, “3-amino-2-[2-(acylamino)pyridin-4-yl]-1,5,6,7-tetrahydro-4h-pyrrolo[3,2-c]pyridin-4-one as CSNK1 inhibitors” (Bayer Aktiengesellschaft, priority 2019, dated 2025)
Several values for one entry are separate records, joined by “and”; a condition that tells them apart may be missing. Identical values can stand only once. Like-named read-outs stand apart in the source and are kept apart here.

Experiments:
Type in all cases: biochemical
[1] = biological target: wild-type Epidermal Growth Factor Receptor (EGFR) (Homo sapiens (Human), UniProt P00533); assay: WT-EGFR Kinase Assay (TR-FRET, 2 mM ATP)
Chain of wild-type Epidermal Growth Factor Receptor (EGFR) (P00533 669-1210): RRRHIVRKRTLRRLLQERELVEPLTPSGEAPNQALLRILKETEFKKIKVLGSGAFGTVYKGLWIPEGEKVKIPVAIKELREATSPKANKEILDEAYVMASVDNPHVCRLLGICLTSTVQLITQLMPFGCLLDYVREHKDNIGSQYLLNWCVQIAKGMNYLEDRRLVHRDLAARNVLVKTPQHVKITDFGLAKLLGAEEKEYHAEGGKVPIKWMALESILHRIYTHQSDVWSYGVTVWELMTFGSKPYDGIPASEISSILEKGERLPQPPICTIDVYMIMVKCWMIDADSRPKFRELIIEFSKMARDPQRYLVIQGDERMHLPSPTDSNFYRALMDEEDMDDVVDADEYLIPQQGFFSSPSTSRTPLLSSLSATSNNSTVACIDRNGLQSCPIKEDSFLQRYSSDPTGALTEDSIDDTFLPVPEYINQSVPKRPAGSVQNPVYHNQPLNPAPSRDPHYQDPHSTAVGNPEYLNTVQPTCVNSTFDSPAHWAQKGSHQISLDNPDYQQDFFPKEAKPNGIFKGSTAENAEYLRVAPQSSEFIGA

human CSNK1A1 [2] = biological target: T1, human CSNK1A1 (Homo sapiens (Human), UniProt P48729); assay: CSNK1A1 High ATP Assay (ADP-Glo, 1 mM ATP); settings: read-out: CSNK1A1 high ATP assay IC50 [mol/l] (median)
T1 sequence (P48729 whole entry): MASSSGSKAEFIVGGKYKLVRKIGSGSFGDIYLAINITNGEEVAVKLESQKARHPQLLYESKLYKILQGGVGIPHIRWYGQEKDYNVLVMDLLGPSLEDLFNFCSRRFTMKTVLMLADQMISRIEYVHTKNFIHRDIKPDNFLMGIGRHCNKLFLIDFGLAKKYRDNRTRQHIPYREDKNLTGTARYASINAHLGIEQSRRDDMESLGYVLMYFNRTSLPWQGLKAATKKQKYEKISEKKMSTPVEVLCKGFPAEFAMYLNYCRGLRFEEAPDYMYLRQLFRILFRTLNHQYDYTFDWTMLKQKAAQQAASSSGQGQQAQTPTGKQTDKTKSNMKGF
Description: CSNK1A1-inhibitory activity of compounds of the present invention in presence of 1 mM adenosine-tri-phosphate (ATP) was quantified employing the CSNK1A1-high-ATP-assay as described in the following paragraphs. In essence, the enzyme activity is measured by quantification of the adenosine-di-phosphate (ADP), which is generated as a co-product of the enzyme reaction, via the “ADP-Glo™ Kinase Assay” kit from the company Promega. This detection system works as follows: In a first step the ATP not consumed in the kinase reaction is quantitatively converted to cAMP employing an adenylate cyclase (“ADP-Glo-reagent”), then the adenylate cyclase is stopped and the ADP generated in the kinase reaction converted to ATP which generates in a luciferase-based reaction a glow-luminescence signal (“Kinase Detection Reagent”).
Recombinant fusion protein of N-terminal Glutathion-S-Transferase (GST) and full-length human CSNK1A1, expressed by baculovirus infected insect cells and purified via Glutathion affinity chromatography, was purchased from Life Technologies (product no. PV4174) and used as enzyme. As substrate for the kinase reaction the biotinylated peptide biotin-Ahx-KRRRAL-pS-VASLPGL (C-terminus in amide form) was used which can be purchased e.g. from the company Biosyntan (Berlin-Buch, Germany).
For the assay 50 nl of a 100 fold concentrated solution of the test compound in DMSO was pipetted into a white low volume 384-well microtiter plate (Greiner Bio-One, Frickenhausen, Germany), 2 μL of a solution of CSNK1A1 in aqueous assay buffer [50 mM HEPES pH 7.5, 10% (v/v) glycerol, 10 mM MgCl2, 50 mM NaCl, 1 mM dithiothreitol, 0.01% (w/v) bovine serum albumin, 0.01% (v/v) Triton X-100] were added and the mixture was incubated for 15 min at 22° C. to allow pre-binding of the test compounds to the enzyme before the start of the kinase reaction. […] The concentration of CSNK1A1 was adjusted depending of the activity of the enzyme lot and was chosen appropriate to have the assay in the linear range, a typical concentration is about 0.4 ng/μL. The reaction was stopped by the addition of 2.5 μL of “ADP-Glo-reagent” (1:1.5 fold diluted with water) and the resulting mixture was incubated at 22° C. for 1 h to convert the ATP not consumed in the kinase reaction completely […]. Subsequently 2.5 μL of the “kinase detection reagent” (1.2 fold more concentrated than recommended by the producer) were added, the resulting mixture was incubated at 22° C. for 1 h and then the luminescence measured with a suitable measurement instrument (e.g. Viewlux™ from Perkin-Elmer). The amount of emitted light was taken as a measure for the amount of ADP generated and thereby for the activity of the CSNK1A1.

human CSNK1D = human CSNK1D (Homo sapiens (Human), UniProt P48730); assay: CSNK1D Assay (ADP-Glo, 1 μM ATP); settings: read-out: CSNK1D IC50 [mol/l] (median)
Chain of human CSNK1D (P48730 whole entry): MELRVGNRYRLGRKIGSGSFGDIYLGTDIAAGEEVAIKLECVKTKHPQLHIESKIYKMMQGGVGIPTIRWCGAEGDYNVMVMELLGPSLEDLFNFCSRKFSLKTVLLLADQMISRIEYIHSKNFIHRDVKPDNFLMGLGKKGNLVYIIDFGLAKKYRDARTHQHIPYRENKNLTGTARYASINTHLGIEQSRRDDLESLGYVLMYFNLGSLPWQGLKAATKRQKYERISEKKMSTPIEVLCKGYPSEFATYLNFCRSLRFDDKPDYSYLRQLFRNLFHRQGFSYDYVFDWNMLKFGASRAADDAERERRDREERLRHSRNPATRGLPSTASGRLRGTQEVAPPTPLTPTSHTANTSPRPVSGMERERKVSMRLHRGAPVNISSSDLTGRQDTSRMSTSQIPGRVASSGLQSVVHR
Description: CSNK1 D-inhibitory activity of compounds of the present invention in presence of 1 μM adenosine-tri-phosphate (ATP) was quantified employing the CSNK1D assay as described in the following paragraphs. In essence, the enzyme activity is measured by quantification of the adenosine-di-phosphate (ADP), which is generated as a co-product of the enzyme reaction, via the “ADP-Glo™ Kinase Assay” kit from the company Promega. This detection system works as follows: In a first step the ATP not consumed in the kinase reaction is quantitatively converted to cAMP employing an adenylate cyclase (“ADP-Glo-reagent”), then the adenylate cyclase is stopped and the ADP generated in the kinase reaction converted to ATP which generates in a luciferase-based reaction a glow-luminescence signal (“Kinase Detection Reagent”). Recombinant fusion protein of N-terminal Glutathion-S-Transferase (GST) and full-length human CSNK1D, expressed by baculovirus infected insect cells and purified via Glutathion affinity chromatography, was purchased from Life Technologies (product no. PV3665) and used as enzyme. As substrate for the kinase reaction the biotinylated peptide Btn-Ahx-[…] (C-terminus in amide form) was used which can be purchased e.g. from the company Biosyntan (Berlin-Buch, Germany).
For the assay 50 nl of a 100 fold concentrated solution of the test compound in DMSO was pipetted into a white 1536-well microtiter plate (Greiner Bio-One, Frickenhausen, Germany), 2 μL of a solution of CSNK1D in aqueous assay buffer [50 mM HEPES pH 7.5, 10% (v/v) glycerol, 10 mM MgCl2, 50 mM NaCl, 1 mM dithiothreitol, 0.01% (w/v) bovine serum albumin, 0.01% (v/v) Triton X-100] were added and the mixture was incubated for 15 min at 22° C. to allow pre-binding of the test compounds to the enzyme before the start of the kinase reaction. […] The concentration of CSNK1 D was adjusted depending of the activity of the enzyme lot and was chosen appropriate to have the assay in the linear range, a typical concentration is about 0.5 ng/μL. The reaction was stopped by the addition of 2.5 μL of “ADP-Glo-reagent” (1:1.5 fold diluted with water) and the resulting mixture was incubated at 22° C. for 1 h to convert the ATP not consumed in the kinase reaction completely […]. Subsequently 2.5 μL of the “kinase detection reagent” (1.2 fold more concentrated than recommended by the producer) were added, the resulting mixture was incubated at 22° C. for 1 h and then the luminescence measured with a suitable measurement instrument (e.g. Viewlux™ from Perkin-Elmer). The amount of emitted light was taken as a measure for the amount of ADP generated and thereby for the activity of the CSNK1D.

human CSNK1A1 [3] = biological target: T1, human CSNK1A1; assay: CSNK1A1 Assay 2 (ADP-Glo, 1 μM ATP); settings: substrate biotin-Ahx-KRRRAL-pS-VASLPGL, read-out: CSNK1A1 Assay 2 IC50 [mol/l] (median)
Description: CSNK1A1-inhibitory activity of compounds of the present invention in presence of 1 μM adenosine-tri-phosphate (ATP) was quantified employing the CSNK1A1 assay as described in the following paragraphs. In essence, the enzyme activity is measured by quantification of the adenosine-di-phosphate (ADP), which is generated as a co-product of the enzyme reaction, via the “ADP-Glo™ Kinase Assay” kit from the company Promega. This detection system works as follows: In a first step the ATP not consumed in the kinase reaction is quantitatively converted to cAMP employing an adenylate cyclase (“ADP-Glo-reagent”), then the adenylate cyclase is stopped and the ADP generated in the kinase reaction converted to ATP which generates in a luciferase-based reaction a glow-luminescence signal (“Kinase Detection Reagent”). Recombinant fusion protein of N-terminal Glutathion-S-Transferase (GST) and full-length human CSNK1A1, expressed by baculovirus infected insect cells and purified via Glutathion affinity chromatography, was purchased from Life Technologies (product no. PV4174) and used as enzyme. As substrate for the kinase reaction the biotinylated peptide biotin-Ahx-KRRRAL-pS-VASLPGL (C-terminus in amide form) was used which can be purchased e.g. from the company Biosyntan (Berlin-Buch, Germany).
For the assay 50 nl of a 100 fold concentrated solution of the test compound in DMSO was pipetted into a white 1536-well microtiter plate (Greiner Bio-One, Frickenhausen, Germany), 2 μL of a solution of CSNK1A1 in aqueous assay buffer [50 mM HEPES pH 7.5, 10% (v/v) glycerol, 10 mM MgCl2, 50 mM NaCl, 1 mM dithiothreitol, 0.01% (w/v) bovine serum albumin, 0.01% (v/v) Triton X-100] were added and the mixture was incubated for 15 min at 22° C. to allow pre-binding of the test compounds to the enzyme before the start of the kinase reaction. […] The concentration of CSNK1A1 was adjusted depending of the activity of the enzyme lot and was chosen appropriate to have the assay in the linear range, a typical concentrations are about 0.0375 ng/μL. The reaction was stopped by the addition of 2.5 μL of “ADP-Glo-reagent” (1:1.5 fold diluted with water) and the resulting mixture was incubated at 22° C. for 1 h to convert the ATP not consumed in the kinase reaction completely […]. Subsequently 2.5 μL of the “kinase detection reagent” (1.2 fold more concentrated than recommended by the producer) were added, the resulting mixture was incubated at 22° C. for 1 h and then the luminescence measured with a suitable measurement instrument (e.g. Viewlux™ from Perkin-Elmer). The amount of emitted light was taken as a measure for the amount of ADP generated and thereby for the activity of the CSNK1A1.

[4] = read-out: EGFR Wildtyp- 2 mM ATP IC50 [mol/l] (median)
[5] = EGFR Wildtyp- 2 mM ATP IC50 [mol/l] (median)

| Structure (SMILES) | IC50 [1, 4] | IC50 (human CSNK1A1 [2]) | IC50 (human CSNK1D) | IC50 (human CSNK1A1 [3]) | IC50 [1, 5] |
| --- | --- | --- | --- | --- | --- |
| CN1C(=O)c2c([nH]c(-c3ccnc(NC(=O)Cc4ccc(F)cc4)c3)c2Nc2ccccc2)CC1(C)C [Example 44, N-[4-(3-anilino-5,6,6-trimethyl-4-oxo-4,5,6,7-tetrahydro-1H-pyrrolo[3,2-c]pyridin-2-yl)pyridin-2-yl]-2-(4-fluorophenyl)acetamide] | 4140 nM | 671 nM | 10.7 nM | 4.82 nM |  |
| CC(C(=O)Nc1cc(-c2[nH]c3c(c2Nc2ccccc2Cl)C(=O)NCC3)ccn1)c1ccc(F)cc1 (single isomer, unassigned) [Example 15, N-{4-[3-(2-chloroanilino)-4-oxo-4,5,6,7-tetrahydro-1H-pyrrolo[3,2-c]pyridin-2-yl]pyridin-2-yl}-2-(4-fluorophenyl)propanamide] |  | 10700 nM and > 5710 nM | 38.6 nM | 42.5 nM | > 20000 nM |
| CN1CCc2[nH]c(-c3ccnc(NC(=O)C(CO)c4ccc(F)cc4)c3)c(Nc3ccccc3)c2C1=O (stereo not shown) [Example 17, N-[4-(3-anilino-5-methyl-4-oxo-4,5,6,7-tetrahydro-1H-pyrrolo[3,2-c]pyridin-2-yl)pyridin-2-yl]-2-(4-fluorophenyl)-3-hydroxypropanamide] | > 20000 nM | 66.5 nM | 39.3 nM | 10.9 nM | 14500 nM and 14300 nM |
| CC1(C)Cc2[nH]c(-c3ccnc(NC(=O)C(CC(F)F)c4ccc(F)cc4)c3)c(Nc3cccc(F)n3)c2C(=O)N1 (single isomer, unassigned; enantiomer 1) [Example 129, 4,4-difluoro-2-(4-fluorophenyl)-N-(4-{3-[(6-fluoropyridin-2-yl)amino]-6,6-dimethyl-4-oxo-4,5,6,7-tetrahydro-1H-pyrrolo[3,2-c]pyridin-2-yl}pyridin-2-yl)butanamide (Enantiomer 1)] |  | 6.37 nM | 5.4 nM | 3.39 nM | > 20000 nM |
| Cc1cc(CC(=O)Nc2cc(-c3[nH]c4c(c3Nc3ccccc3)C(=O)N(C)CC4)ccn2)ccn1 [Example 85, N-[4-(3-anilino-5-methyl-4-oxo-4,5,6,7-tetrahydro-1H-pyrrolo[3,2-c]pyridin-2-yl)pyridin-2-yl]-2-(2-methylpyridin-4-yl)acetamide] | 937 nM | 26.5 nM | 3.36 nM | 1.78 nM |  |
| Cc1ccccc1Nc1c(-c2ccnc(NC(=O)C(CC(F)F)c3ccc(F)cc3)c2)[nH]c2c1C(=O)NC1(CCC1)C2 (single isomer, unassigned; enantiomer 2) [Example 145, (+)-4,4-difluoro-2-(4-fluorophenyl)-N-{4-[3′-(2-methylanilino)-4′-oxo-1′,4′,5′,7′-tetrahydrospiro[cyclobutane-1,6′-pyrrolo[3,2-c]pyridin]-2′-yl]pyridin-2-yl}butanamide-(Enantiomer 2)] | > 20000 nM | 14.8 nM | 8.21 nM | 10.7 nM |  |
| CCN1CCc2[nH]c(-c3ccnc(NC(=O)C(C)c4ccc(F)cc4)c3)c(Nc3ccccc3)c2C1=O (single isomer, unassigned) [Example 26, N-[4-(3-anilino-5-ethyl-4-oxo-4,5,6,7-tetrahydro-1H-pyrrolo[3,2-c]pyridin-2-yl)pyridin-2-yl]-2-(4-fluorophenyl)propanamide] | > 20000 nM | 288 nM | 23.1 nM | 4.05 nM |  |
| CC1(C)Cc2[nH]c(-c3ccnc(NC(=O)C(CC(F)F)c4ccc(F)cc4)c3)c(Nc3cccc(F)c3)c2C(=O)N1 (single isomer, unassigned; enantiomer 1) [Example 120, 4,4-difluoro-N-{4-[3-(3-fluoroanilino)-6,6-dimethyl-4-oxo-4,5,6,7-tetrahydro-1H-pyrrolo[3,2-c]pyridin-2-yl]pyridin-2-yl}-2-(4-fluorophenyl)butanamide (Enantiomer 1)] |  | 477 nM | 11 nM | 9.64 nM | > 20000 nM |
| CC1Cc2[nH]c(-c3ccnc(NC(=O)Cc4ccc(F)cc4)c3)c(Nc3ccccc3)c2C(=O)N1C (single isomer, unassigned; (+)) [Example 89, (+)-N-{4-[3-anilino-5,6-dimethyl-4-oxo-4,5,6,7-tetrahydro-1H-pyrrolo[3,2-c]pyridin-2-yl]pyridin-2-yl}-2-(4-fluorophenyl)acetamide] |  | 364 nM | 5.72 nM | 1.88 nM | 6050 nM |
